Measurements as given in publication PMC12667995 (bioRxiv, 2025).

Columns and labels:
ProT3 = target: T1, ProT3 (Arabidopsis thaliana, UniProt Q9SJP9); assay: 3H-proline uptake and two-electrode voltage clamp, Xenopus laevis oocytes; assay type: cell-based; settings: uptake: 0.5 uM 3H-L-proline, labelled compound, pH 5.0, 30 min; currents: 5 mM L-proline, pH 5.0, -60 mV
T1 sequence (Q9SJP9 1-436): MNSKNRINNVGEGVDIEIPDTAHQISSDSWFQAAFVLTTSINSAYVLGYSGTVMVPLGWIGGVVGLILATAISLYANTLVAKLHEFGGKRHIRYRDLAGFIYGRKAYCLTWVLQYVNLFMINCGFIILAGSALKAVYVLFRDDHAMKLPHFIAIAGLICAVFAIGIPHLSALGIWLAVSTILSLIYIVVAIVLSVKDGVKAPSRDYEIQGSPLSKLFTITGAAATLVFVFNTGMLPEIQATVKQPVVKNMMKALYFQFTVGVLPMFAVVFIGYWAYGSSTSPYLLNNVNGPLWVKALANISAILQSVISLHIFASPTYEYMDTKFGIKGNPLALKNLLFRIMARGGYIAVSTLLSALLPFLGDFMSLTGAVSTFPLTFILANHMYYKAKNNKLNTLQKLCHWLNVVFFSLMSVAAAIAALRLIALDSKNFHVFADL

ProT2 = target: T2, ProT2 (Arabidopsis thaliana, UniProt P92962); assay: as above; assay type: cell-based; settings: uptake: 0.5 uM 3H-L-proline, labelled compound, pH 5.0, 30 min; currents: 5 mM L-proline, pH 5.0, -60 mV
T2 sequence (P92962 1-439): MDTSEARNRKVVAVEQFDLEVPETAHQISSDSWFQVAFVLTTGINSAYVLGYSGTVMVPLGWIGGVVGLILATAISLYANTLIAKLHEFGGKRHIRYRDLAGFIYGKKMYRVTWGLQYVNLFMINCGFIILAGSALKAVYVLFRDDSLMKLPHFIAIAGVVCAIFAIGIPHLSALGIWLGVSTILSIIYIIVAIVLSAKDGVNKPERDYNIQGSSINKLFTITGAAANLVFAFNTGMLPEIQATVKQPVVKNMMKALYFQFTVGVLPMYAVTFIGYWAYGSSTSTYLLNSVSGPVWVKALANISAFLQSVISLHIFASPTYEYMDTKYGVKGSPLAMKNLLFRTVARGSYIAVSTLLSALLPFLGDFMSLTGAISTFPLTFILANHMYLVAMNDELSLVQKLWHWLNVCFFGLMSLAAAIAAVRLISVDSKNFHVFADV

O=C(O)[C@@H]1CCCN1 [L-proline]
3H-proline uptake and two-electrode voltage clamp, Xenopus laevis oocytes (ProT3): Oocytes expressing ProT2 or ProT3 can import ^3H-proline into the cells from external buffer | 3H-proline uptake and two-electrode voltage clamp, Xenopus laevis oocytes (ProT2): Oocytes expressing ProT2 or ProT3 can import ^3H-proline into the cells from external buffer
